Measured values reported in patent publication US4011390A, “Semi-synthetic aminocyclitol aminoglycoside antibiotics and methods for the preparation thereof” (Schering-Plough Corporation, priority 1974, dated 1977).

What was measured:
Assay type in all cases: cell-based
[1] = test system: Bacillus subtilis; assay: Disc test, Bauer-Kirby technique with 10 Mcg. discs; details: strain ATCC 6633
Description: (§1) Disc Test Results (Replicate Tests) With The Mutamicins, Sisomicin and
(§2) Bauer-Kirby Technique^1 With 10 Mcg. Discs
(§3) ^1 Bauer, Kirby, Sherris and Turck, American Journal of Clinical

[2] = test system: Streptococcus pyogenes; assay: as above
Description: as §1, §2, §3

[3] = test system: Staphylococcus aureus; assay: as above
Description: as §1, §2, §3

[4] = test system: Escherichia coli; assay: as above; details: 10 Mcg. discs
Description: as §1, §2, §3

[5] = test system: Pseudomonas aeruginosa; assay: as above
Description: as §1, §2, §3

[6] = test system: Klebsiella pneumoniae; assay: as above
Description: as §1, §2, §3

[7] = test system: Providence 164; assay: as above; details: strain 164
Description: as §1, §2, §3

[8] = test system: E. coli; assay: Activity against resistant strains; details: E. coli W677/R55 and LA290/R55
Description: (§4) In many instances, bacterial resistance is related to the organism's ability to inactivate the antibacterial agent via enzymatic (biochemical) means. Some species inactivate aminoglycosides antibiotics by acetylating the antibacterial agent, others by phosphorylation and still others by adenylylating. Some strains have several different inactivating capabilities. Further, the inactivation reactions occur at a specific site or sites on the antibacterial agent. We have shown by the compounds of this invention that alteration of sites on the antibiotic molecule not directly involved in inactivation processes can nevertheless frustrate these inactivation processes. […] The tables illustrate that the mutamicins include compounds which are active against strains having different mechanisms of inactivation of gentamicin, sisomicin, kanamycin, neomycin and torbramycin. For example, some mutamicins are effective against strains of E. coli which contain adenylylating R factors such as E. coli W677/R55 and LA290/R55. These E. coli strains are resistant to gentamicin, sisomicin and torbramycin. Some are also effective against gentamicin, tobramycin and kanamycin resistant adenylylating strains of Klebsiella pneumoniae and also kanamycin, neomycin phosphorylating strains of E. coli and Klebsiella pneumoniae. Further, some mutamicins are effective against gentamicin and sisomicin resistant strains of Pseudomonas aeruginosa and gentamicin, sisomicin, tobramycin resistant Providence which is sensitive to kanamycin. Thus, the mutamicins afford a means for combatting strains of bacteria which have already developed a variety of mechanisms for resisting the action of many of the antibiotics known in the art or currently in commercial use.

[9] = test system: Providence; assay: Activity against resistant strains; details: gentamicin, sisomicin, tobramycin resistant Providence
Description: as §4

[10] = test system: Pseudomonas aeruginosa; assay: Activity against resistant strains; details: gentamicin and sisomicin resistant strains
Description: as §4

[11] = test system: Klebsiella pneumoniae; assay: Activity against resistant strains; details: gentamicin, tobramycin and kanamycin resistant adenylylating strains
Description: as §4

Substance: gentamicin [reference compound]
- Zone Size [1]: 31 mm
- Zone Size ([2]; strain B-Cruz): 16 mm
- Zone Size ([2]; strain C): 13 mm
- Zone Size ([3]; strain 59N): 28 mm
- Zone Size ([3]; strain ATCC 6538P): 25 mm
- Zone Size ([3]; strain Wood): 27 mm
- Zone Size ([3]; strain Ziegler): 26 mm
- Zone Size ([4]; strain 589): 23 mm
- Zone Size ([4]; strain ATCC 10536): 28 mm
- Zone Size ([4]; strain JR88): 11 mm
- Zone Size ([4]; strain JR90): 0 mm
- Zone Size ([4]; strain LA290/R55): 12 mm
- Zone Size ([4]; strain Swidinsky 4195): 23 mm
- Zone Size ([4]; strain W677/R55): 13 mm
- Zone Size ([5]; strain Capetown 18): 12 mm
- Zone Size ([5]; strain D-2): 23 mm
- Zone Size ([5]; strain St. Michael 413): 26 mm
- Zone Size ([5]; strain St. Michael 762): 24 mm
- Zone Size ([5]; strain St. Michael 1262): 25 mm
- Zone Size ([5]; strain St. Michael 1395): 26 mm
- Zone Size ([5]; strain Stone 20): 27 mm
- Zone Size ([5]; strain Stone 39): 25 mm
- Zone Size ([5]; strain Stone 130): 12 mm
- Zone Size ([5]; strain Stone 138): 10 mm
- Zone Size ([6]; strain Ad 17): 22 mm
- Zone Size ([6]; strain Ad 18): 25 mm
- Zone Size ([6]; strain Georgetown 3020): 11 mm
- Zone Size ([6]; strain Georgetown 3694): 13 mm
- Zone Size [7]: 11 mm
- activity against strains containing adenylylating R factors [8]: resistant
- activity against resistant Providence [9]: resistant
- activity against resistant strains [10]: resistant
- activity against resistant adenylylating strains [11]: resistant
